pEC50, pKd: −log10 of the molar value.
What was measured:
RXRα [1] = biological target: T1, RXRα (Homo sapiens, UniProt P19793); test: RXR receptor transactivation assay; type: cell-based; settings: for Emax: read-out: % Eff RXR α transactivation; for pEC50: read-out: EC50 RXR α transactivation
T1 construct: expressed in transfected cells
T1 sequence (P19793 1-462): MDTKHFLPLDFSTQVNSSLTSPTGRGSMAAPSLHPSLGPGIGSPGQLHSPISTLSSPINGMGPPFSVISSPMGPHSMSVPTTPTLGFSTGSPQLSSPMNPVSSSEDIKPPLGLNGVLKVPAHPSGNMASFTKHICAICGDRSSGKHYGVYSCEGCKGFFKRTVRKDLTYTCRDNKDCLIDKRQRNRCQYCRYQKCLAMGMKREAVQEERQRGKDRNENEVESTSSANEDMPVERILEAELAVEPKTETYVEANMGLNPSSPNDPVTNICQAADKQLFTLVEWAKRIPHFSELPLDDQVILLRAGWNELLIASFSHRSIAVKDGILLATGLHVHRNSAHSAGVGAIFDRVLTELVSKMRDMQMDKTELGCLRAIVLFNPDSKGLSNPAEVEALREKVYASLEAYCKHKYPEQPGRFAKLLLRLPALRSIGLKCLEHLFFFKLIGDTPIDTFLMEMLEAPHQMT
Source text: The specification of U.S. Pat. No. 5,455,265 is hereby expressly incorporated by reference.
(§1) A holoreceptor transactivation assay and a ligand binding assay which measure the antagonist/agonist like activity of the compounds of the invention, or their ability to bind to the several retinoid receptor subtypes, respectively, are described in published PCT Application No. WO WO93/11755 (particularly on pages 30-33 and 37-41) published on Jun. 24, 1993, the specification of which is also incorporated herein by reference. A detailed experimental procedure for holoreceptor transactivations has been described by Heyman et al. Cell 68, 397-406, (1992); Allegretto et al. J. Biol. Chem. 268, 26625-26633, and Mangelsdorf et al. The Retinoids: Biology, Chemistry and Medicine, pp 319-349, Raven Press Ltd., New York, which are expressly incorporated herein by reference. The results obtained in this assay are expressed in EC50 numbers, as they are also in the chimeric receptor transactivation assay. The results of ligand binding assay are expressed in Kd numbers. (See Cheng et as. Biochemical Pharmacology Vol. 22 pp 3099-3108, expressly incorporated herein by reference.)

RXRγ [2] = biological target: T2, RXRγ (Homo sapiens, UniProt P48443); test: RXR receptor transactivation assay; type: cell-based; settings: for Emax: read-out: % Eff RXR γ transactivation; for pEC50: read-out: EC50 RXR γ transactivation
T2 construct: expressed in transfected cells
T2 sequence (P48443 1-463): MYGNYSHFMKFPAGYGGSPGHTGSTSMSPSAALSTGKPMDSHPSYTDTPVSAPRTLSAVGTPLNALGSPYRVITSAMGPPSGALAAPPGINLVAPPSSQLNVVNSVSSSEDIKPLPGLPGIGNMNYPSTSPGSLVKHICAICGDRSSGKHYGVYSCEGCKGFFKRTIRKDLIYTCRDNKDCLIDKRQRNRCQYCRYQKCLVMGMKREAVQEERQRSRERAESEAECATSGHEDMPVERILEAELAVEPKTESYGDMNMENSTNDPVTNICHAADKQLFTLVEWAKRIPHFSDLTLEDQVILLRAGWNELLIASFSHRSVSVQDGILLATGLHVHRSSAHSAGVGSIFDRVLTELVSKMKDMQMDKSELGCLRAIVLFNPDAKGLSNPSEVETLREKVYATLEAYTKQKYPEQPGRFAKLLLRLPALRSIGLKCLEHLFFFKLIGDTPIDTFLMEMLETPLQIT
Source text: as §1

RXRβ [3] = biological target: T3, RXRβ (Homo sapiens, UniProt P28702); test: RXR receptor transactivation assay; type: cell-based; settings: for Emax: read-out: % Eff RXR β transactivation; for pEC50: read-out: EC50 RXR β transactivation
T3 construct: expressed in transfected cells
T3 sequence (P28702 1-533): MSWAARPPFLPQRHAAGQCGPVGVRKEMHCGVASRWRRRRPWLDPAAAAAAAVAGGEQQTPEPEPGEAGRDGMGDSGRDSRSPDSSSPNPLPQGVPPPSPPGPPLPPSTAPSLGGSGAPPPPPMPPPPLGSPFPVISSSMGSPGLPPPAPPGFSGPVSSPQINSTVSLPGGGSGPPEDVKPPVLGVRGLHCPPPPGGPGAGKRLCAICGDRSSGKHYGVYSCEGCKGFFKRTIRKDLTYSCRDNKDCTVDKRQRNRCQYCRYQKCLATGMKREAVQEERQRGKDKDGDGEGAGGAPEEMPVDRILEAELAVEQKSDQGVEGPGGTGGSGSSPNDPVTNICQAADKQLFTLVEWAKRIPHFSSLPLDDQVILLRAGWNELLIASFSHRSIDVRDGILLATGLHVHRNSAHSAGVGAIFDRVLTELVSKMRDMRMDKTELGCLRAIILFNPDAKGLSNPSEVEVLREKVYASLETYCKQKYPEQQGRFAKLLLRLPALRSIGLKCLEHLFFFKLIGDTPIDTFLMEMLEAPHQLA
Source text: as §1

RXRα [4] = biological target: T1, RXRα; test: ligand binding assay; settings: read-out: Kd RXR α binding
Source text: as §1

RXRγ [5] = biological target: T2, RXRγ; test: ligand binding assay; settings: read-out: Kd RXR γ binding
Source text: as §1

RXRβ [6] = biological target: T3, RXRβ; test: ligand binding assay; settings: read-out: Kd RXR β binding
Source text: as §1

Row | Emax (RXRα [1]) | Emax (RXRγ [2]) | Emax (RXRβ [3]) | pEC50 (RXRβ [3]) | pKd (RXRα [4]) | pKd (RXRγ [5]) | pEC50 (RXRα [1]) | pEC50 (RXRγ [2]) | pKd (RXRβ [6]) | Compound
1 | 147% | 156% | 152% | 10.22 | 10.30 | 8.14 |  |  |  | CCC1(c2cc(C(C)C)cc(C(C)C)c2)CC1/C=C/C(C)=C/C(=O)O (single isomer, unassigned; (+)) [Compound 7]
2 | 93% | 86% | 80% | 8.37 | 10.52 | 8.43 | 8.05 | 8.89 |  | CCCC1(c2cc(C(C)(C)C)cc(C(C)(C)C)c2)CC1/C=C/C(C)=C/C(=O)O (single isomer, unassigned; (+)) [Compound 14]
3 | 94% | 110% | 88% | 8.74 | 10.57 | 9.24 | 9.52 | 9.10 |  | CCCC1(c2ccc3c(c2)C(C(C)(C)C)=CCC3(C)C)CC1/C=C/C(C)=C/C(=O)O (single isomer, unassigned; (+)) [Compound 22]
4 | 105% | 115% | 98% | 9.05 | 11.00 | 8.85 | 10.30 | 10.00 |  | CCCC1(c2ccc3c(c2)C(C(C)C)=CCC3(C)C)CC1/C=C/C(C)=C/C(=O)O (single isomer, unassigned; (+)) [Compound 34]
5 | 103% | 96% | 111% | 9.34 | 9.68 | 8.51 | 10.30 | 9.85 |  | CC1=CC(C)(C)Oc2cc(C3(C)CC3/C=C/C(C)=C/C(=O)O)ccc21 (centres unmarked) [Compound 28]
6 | 95% | 89% | 95% | 9.15 | 11.00 | 8.38 | 10.00 | 10.00 | 9.10 | CC(/C=C/[C@@H]1C[C@]1(C)c1ccc2c(c1)C(C(C)(C)C)=CCC2(C)C)=C\C(=O)O [Compound 57]
7 | 109% | 108% | 109% | 9.52 | 9.15 | 8.52 | 10.00 | 10.00 | 8.22 | CC(/C=C/[C@@H]1C[C@]1(C)c1ccc2c(c1)C(C(C)C)=CCC2(C)C)=C\C(=O)O [Compound 64, 7(1-Isoproply-4,4-dimethyl-3,4-dihydronaphthalen-7-yl](6S,7S)-6,7-methano-3,7-dimethyl-hepta-2E,4E-dienoic acid]
8 | 102% | 116% | 107% | 9.52 | 10.30 | 9.49 | 10.00 | 10.00 | 8.54 | CC(/C=C/[C@@H]1C[C@]1(C)c1ccc2c(c1)OC(C)(C)C=C2C(C)C)=C\C(=O)O [Compound 87]
9 | 106% | 105% | 107% | 10.00 | 9.77 | 8.85 | 10.00 | 10.00 | 8.80 | CC(/C=C/[C@@H]1C[C@]1(C)c1ccc2c(c1)OC(C)(C)C=C2C(C)(C)C)=C\C(=O)O [Compound 88]
10 | 110% | 112% | 99% | 10.00 | 9.72 | 8.85 | 10.00 | 10.00 | 9.22 | CCCCC1=CC(C)(C)Oc2cc([C@@]3(C)C[C@H]3/C=C/C(C)=C/C(=O)O)ccc21 [Compound 89]
11 | 87% | 112% | 85% | 8.05 | 9.22 | 8.55 | 9.00 | 8.70 | 8.77 | CC(/C=C/[C@@H]1C[C@]1(C)c1cc(C(C)(C)C)cc(C(C)(C)C)c1)=C\C(=O)O [Compound 96, 7-(3,5-di-t-Butylphenyl)-(6S,7S)-6,7-methano-3,7-dimethyl-hepta-2E,4E-dienoic acid]

Source: patent US6403638B1, “2,4-pentadienoic acid derivatives having selective activity for retinoid X (RXR) receptors” (Allergan Sales, Inc., priority 1998, dated 2002)
